According to publication PMC12487869, “Toward Imaging of the GABA Transporter Type 1 In Vivo: Quantitative Evaluation of 4 Novel PET Radiotracers in Nonhuman Primates” (Journal of Nuclear Medicine, 2025):

Tests used:
[1] = Plasma free fraction (fp), ultrafiltration method; assay type: in vitro ADME, rhesus monkeys (Macaca mulatta); details: measured in triplicate per scan, mean ± SD
Procedure: The plasma free fraction (fp) for each scan was measured in triplicate using the ultrafiltration method and calculated as the ratio of radioactivity in the filtrate to that in the plasma ([24]).

GAT-1 [2] = molecular target: T1, GAT-1 (Macaca mulatta, UniProt H9ELS5); assay: PET brain imaging with kinetic modeling (1TCM), baseline and tiagabine blocking scans; assay type: in vivo, rhesus monkeys (Macaca mulatta); details: for Median VT across ROIs: 1TCM
T1 construct: from tissue; host or cells: brain of living rhesus monkeys (in vivo PET)
Procedure: Twenty scans were acquired from 4 rhesus monkeys (Macaca mulatta). Each monkey underwent baseline and blocking scans with ^18F-GATT-31, ^18F-GATT-34, ^18F-GATT-39, or ^18F-GATT-44 (Fig. 1) on a Focus-220 small-animal PET scanner (Siemens Healthineers).
(§1) Before each scan, each monkey was sedated with alfaxalone (2 mg/kg), midazolam (0.3 mg/kg), and dexmedetomidine (0.01 mg/kg), and anesthesia was maintained with 1.5%–2.5% isoflurane. Heart rate, blood pressure, respiration rate, and oxygen saturation were monitored continuously. An intravenous line was placed in the saphenous or cephalic vein for delivery of the radiotracer, as well as tiagabine during blocking studies (0.5 mg/kg administered 19 ± 4 min before radiotracer injections). A catheter was placed in the radial or tibial artery for blood sampling.
Before injection, a transmission scan was acquired. Starting with injection of the radiotracer, PET emission data were acquired in list-mode format and binned into 45 frames (6 × 30 s, 3 × 1 min, 2 × 2 min, and 34 × 5 min).
For region-of-interest (ROI) definition, each PET image was registered to an in-house rhesus monkey anatomical MRI template using the concatenation of a rigid-body transformation between the summed PET image (0–10 min) and corresponding monkey’s MRI (using the FMRIB Linear Image Registration Tool) and a nonlinear transformation matrix estimated between the monkey’s MRI and the MRI template (BioImage Suite software version 3.01). Regional time–activity curves were extracted for the following 11 ROIs: brain stem, caudate, cerebellum, cingulate cortex, frontal cortex, hippocampus, insula, occipital cortex, putamen, temporal cortex, and thalamus.
For each baseline and blocking scan, kinetic analysis was performed using a 1-tissue compartment model (1TCM), a reversible 2-tissue compartment model (2TCM; k4 > 0), and an irreversible 2-tissue compartment model (2TiCM; k4 = 0), including a blood volume fraction (Vb) term and a time-delay term. Vb was estimated for each time–activity curve using the whole-blood curve fitted with a sum of exponentials. The time delay (Δt) between the input function and the brain was estimated by fitting the first 10 min of the whole-brain time–activity curve to a 1TCM with 3 parameters: K1, Vb, and Δt (k2 was set to 0 because of the negligible radiotracer washout during the first 10 min). This estimated time delay value was then used in the time–activity curve fits. The primary parameters of interest were the influx constant (K1, expressed in microliters per minute per cubic centimeter, since values were low), the volume of distribution (VT, expressed in milliliters per cubic centimeter), and the net influx constant (Ki, expressed in milliliters per minute per cubic centimeter) for 2TiCM.

GAT-1 [3] = molecular target: T1, GAT-1; assay: Occupancy plots from baseline and tiagabine blocking PET scans (occupancy, VND, BPND); assay type: in vivo, rhesus monkeys (Macaca mulatta); set-up: key to BPND: BPND = VT/VND − 1 (dimensionless); details: for VND: occupancy plot; for Occupancy: tiagabine 0.5 mg/kg occupancy measured with this radiotracer
Procedure: as §1
(§2) Occupancy plots ([26]) were used to estimate tiagabine occupancy and the nondisplaceable volume of distribution (VND). This VND value was used to compute the nondisplaceable binding potential (BPND = VT/VND − 1). To compare the performance between 2 radiotracers, a Guo plot ([27]) was created, using baseline VT values, to assess the relative affinity and BPND values of each radiotracer.

GAT-1 [4] = molecular target: T1, GAT-1; assay: Guo plot comparing baseline VT of two radiotracers (relative affinity and BPND); assay type: in vivo, rhesus monkeys (Macaca mulatta)
From the text: as §2

GAT-1 [5] = molecular target: T1, GAT-1; assay: Time stability of VT with shortened scan duration; assay type: in vivo, rhesus monkeys (Macaca mulatta); details: for Mean percent difference in VT on shortening scan from 180 to 120 min: baseline, 3 monkeys; for Mean percent difference in VT with respect to the 180-min value: blocking condition
Procedure: Finally, to assess the possibility of reducing scan duration, time stability was assessed for the most promising radiotracer by sequentially shortening the time–activity curves from 180 to 60 min and reestimating the kinetic parameters. Scan-time reduction was deemed possible if the VT values from these shortened time–activity curves were within 10% of those estimated with the full time–activity curves.

T1 sequence (H9ELS5 1-599): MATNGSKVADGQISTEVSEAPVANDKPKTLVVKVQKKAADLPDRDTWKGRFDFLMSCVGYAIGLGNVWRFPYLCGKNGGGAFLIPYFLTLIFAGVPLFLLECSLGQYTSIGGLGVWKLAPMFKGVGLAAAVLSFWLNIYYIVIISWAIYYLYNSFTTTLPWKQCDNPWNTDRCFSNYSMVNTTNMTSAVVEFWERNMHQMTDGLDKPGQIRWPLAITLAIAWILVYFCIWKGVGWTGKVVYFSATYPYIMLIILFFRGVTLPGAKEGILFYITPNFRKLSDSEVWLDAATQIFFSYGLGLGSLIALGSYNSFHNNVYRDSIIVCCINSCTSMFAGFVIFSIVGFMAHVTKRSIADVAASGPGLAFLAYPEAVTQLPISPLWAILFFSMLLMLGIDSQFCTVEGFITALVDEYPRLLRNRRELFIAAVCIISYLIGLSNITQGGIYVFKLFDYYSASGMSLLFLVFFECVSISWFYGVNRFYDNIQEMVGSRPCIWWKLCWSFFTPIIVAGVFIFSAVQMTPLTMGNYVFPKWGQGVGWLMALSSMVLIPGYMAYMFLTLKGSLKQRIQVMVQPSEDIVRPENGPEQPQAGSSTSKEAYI

SMILES: Cc1ccccc1C(=CCCN1CCCC(C(=O)O)C1)c1ccccc1[18F] (centres unmarked) [^18F-GATT-44]
- Free fraction [1]: 13.5 ± 1.4%
- Median VT across ROIs (GAT-1 [2]; after blocking with tiagabine 0.5 mg/kg): 1.7 mL/cm^3
- Median VT across ROIs (GAT-1 [2]; baseline): 3.5 mL/cm^3
- VT (GAT-1 [2]; Average of ROIs, baseline, 3 monkeys, mean ± SD): 3.40 ± 0.52 mL/cm^3
- VT (GAT-1 [2]; Average of ROIs, blocking (tiagabine 0.5 mg/kg), 3 monkeys, mean ± SD): 1.66 ± 0.11 mL/cm^3
- VT (GAT-1 [2]; Brain stem, baseline, averaged across 3 monkeys, mean ± SD): 2.61 ± 0.42 mL/cm^3
- VT (GAT-1 [2]; Brain stem, blocking (tiagabine 0.5 mg/kg), 3 monkeys, mean ± SD): 1.45 ± 0.20 mL/cm^3
- VT (GAT-1 [2]; Caudate nucleus, baseline, 3 monkeys, mean ± SD): 2.25 ± 0.13 mL/cm^3
- VT (GAT-1 [2]; Caudate nucleus, blocking (tiagabine 0.5 mg/kg), 3 monkeys, mean ± SD): 1.27 ± 0.11 mL/cm^3
- VT (GAT-1 [2]; Cerebellum, baseline, 3 monkeys, mean ± SD): 3.36 ± 0.39 mL/cm^3
- VT (GAT-1 [2]; Cerebellum, blocking (tiagabine 0.5 mg/kg), 3 monkeys, mean ± SD): 1.60 ± 0.13 mL/cm^3
- VT (GAT-1 [2]; Cingulate cortex, baseline, 3 monkeys, mean ± SD): 4.30 ± 0.39 mL/cm^3
- VT (GAT-1 [2]; Cingulate cortex, blocking (tiagabine 0.5 mg/kg), 3 monkeys, mean ± SD): 2.16 ± 0.18 mL/cm^3
- VT (GAT-1 [2]; Frontal cortex, baseline, 3 monkeys, mean ± SD): 3.73 ± 0.46 mL/cm^3
- VT (GAT-1 [2]; Frontal cortex, blocking (tiagabine 0.5 mg/kg), 3 monkeys, mean ± SD): 1.79 ± 0.04 mL/cm^3
- VT (GAT-1 [2]; Hippocampus, baseline, 3 monkeys, mean ± SD): 2.98 ± 1.10 mL/cm^3
- VT (GAT-1 [2]; Hippocampus, blocking (tiagabine 0.5 mg/kg), 3 monkeys, mean ± SD): 1.44 ± 0.07 mL/cm^3
- VT (GAT-1 [2]; Insula, baseline, 3 monkeys, mean ± SD): 4.46 ± 0.67 mL/cm^3
- VT (GAT-1 [2]; Insula, blocking (tiagabine 0.5 mg/kg), 3 monkeys, mean ± SD): 1.97 ± 0.07 mL/cm^3
- VT (GAT-1 [2]; Occipital cortex, baseline, 3 monkeys, mean ± SD): 4.55 ± 0.74 mL/cm^3
- VT (GAT-1 [2]; Occipital cortex, blocking (tiagabine 0.5 mg/kg), 3 monkeys, mean ± SD): 2.04 ± 0.11 mL/cm^3
- VT (GAT-1 [2]; Putamen, baseline, 3 monkeys, mean ± SD): 2.71 ± 0.05 mL/cm^3
- VT (GAT-1 [2]; Putamen, blocking (tiagabine 0.5 mg/kg), 3 monkeys, mean ± SD): 1.44 ± 0.12 mL/cm^3
- VT (GAT-1 [2]; Temporal cortex, baseline, 3 monkeys, mean ± SD): 4.48 ± 1.24 mL/cm^3
- VT (GAT-1 [2]; Temporal cortex, blocking (tiagabine 0.5 mg/kg), 3 monkeys, mean ± SD): 1.93 ± 0.05 mL/cm^3
- VT (GAT-1 [2]; Thalamus, baseline, 3 monkeys, mean ± SD): 1.96 ± 0.10 mL/cm^3
- VT (GAT-1 [2]; Thalamus, blocking (tiagabine 0.5 mg/kg), 3 monkeys, mean ± SD): 1.19 ± 0.17 mL/cm^3
- Radiotracer clearance time (half-life = ln(2)/k2) (GAT-1 [2]; brain, baseline): 175 ± 42 min
- Blood volume fraction (Vb) (GAT-1 [2]; mean ± SD, n = 66 (11 ROIs × 6 scans)): 0.036 ± 0.013 mL/cm^3
- Overall spatial correlation (r) of regional distribution with ^11C-flumazenil (GAT-1 [2]; nonhuman primates, P < 0.01, previously acquired ^11C-flumazenil data): 0.87
- BPND (GAT-1 [3]; Average of ROIs, baseline): 2.88 ± 0.59
- BPND (GAT-1 [3]; Average of ROIs, blocking): 0.90 ± 0.13
- BPND (GAT-1 [3]; Brain stem, baseline, BPND = VT/VND – 1 with averaged VND): 1.98 ± 0.48
- BPND (GAT-1 [3]; Brain stem, blocking, BPND = VT/VND – 1 with averaged VND): 0.66 ± 0.23
- BPND (GAT-1 [3]; Caudate nucleus, baseline): 1.57 ± 0.15
- BPND (GAT-1 [3]; Caudate nucleus, blocking): 0.45 ± 0.12
- BPND (GAT-1 [3]; Cerebellum, baseline): 2.84 ± 0.44
- BPND (GAT-1 [3]; Cerebellum, blocking): 0.83 ± 0.15
- BPND (GAT-1 [3]; Cingulate cortex, baseline): 3.91 ± 0.44
- BPND (GAT-1 [3]; Cingulate cortex, blocking): 1.46 ± 0.20
- BPND (GAT-1 [3]; Frontal cortex, baseline): 3.26 ± 0.52
- BPND (GAT-1 [3]; Frontal cortex, blocking): 1.04 ± 0.04
- BPND (GAT-1 [3]; Hippocampus, baseline): 2.40 ± 1.25
- BPND (GAT-1 [3]; Hippocampus, blocking): 0.64 ± 0.08
- BPND (GAT-1 [3]; Insula, baseline): 4.08 ± 0.76
- BPND (GAT-1 [3]; Insula, blocking): 1.25 ± 0.08
- BPND (GAT-1 [3]; Occipital cortex, baseline): 4.19 ± 0.84
- BPND (GAT-1 [3]; Occipital cortex, blocking): 1.32 ± 0.13
- BPND (GAT-1 [3]; Putamen, baseline): 2.09 ± 0.06
- BPND (GAT-1 [3]; Putamen, blocking): 0.64 ± 0.14
- BPND (GAT-1 [3]; Temporal cortex, baseline): 4.10 ± 1.41
- BPND (GAT-1 [3]; Temporal cortex, blocking): 1.20 ± 0.05
- BPND (GAT-1 [3]; Thalamus, baseline): 1.24 ± 0.11
- BPND (GAT-1 [3]; Thalamus, blocking): 0.36 ± 0.20
- VND (GAT-1 [3]; monkey 1): 1.03 mL/cm^3
- VND (GAT-1 [3]; monkey 2): 0.96 mL/cm^3
- VND (GAT-1 [3]; monkey 3): 0.64 mL/cm^3
- VND, mean ± SD across monkeys (GAT-1 [3]; occupancy plots, 3 monkeys, average rSE of 16%): 0.88 ± 0.21 mL/cm^3
- Occupancy (GAT-1 [3]; monkey 1): 65%
- Occupancy (GAT-1 [3]; monkey 2): 70%
- Occupancy (GAT-1 [3]; monkey 3): 71%
- Occupancy (overall) (GAT-1 [3]; tiagabine blocking): 69%
- KD ratio (KD^GATT-31/KD^GATT-44) (GAT-1 [4]; Guo plot slope using measured fp values): 1.06
- BPND predicted higher than for ^18F-GATT-31 (GAT-1 [4]; Guo plot y-intercept, baseline VT): approximately 17%
- Mean percent difference in VT on shortening scan from 180 to 120 min (GAT-1 [5]; hippocampus): 1%
- Mean percent difference in VT on shortening scan from 180 to 120 min (GAT-1 [5]; thalamus): −12%
- Mean percent difference in VT with respect to the 180-min value (GAT-1 [5]; frontal cortex): −5%
- Mean percent difference in VT with respect to the 180-min value (GAT-1 [5]; thalamus): 3%
